Active and inactive are the calls of the source. The rule behind the calls is not given here.
What was measured:
[1] = biological target: T1, Protein arginine N-methyltransferase 6 (Homo sapiens, UniProt Q96LA8); assay: Inhibition of N-terminal hexa-His tagged human PRMT6 expressed in Sf9 cells using 24 residues of biotin labelled histone4 substrate and tritiated 3H-S-adenosylmethionine by scintillation proximity assay
[2] = biological target: T2, Histone-arginine methyltransferase CARM1 (Homo sapiens, UniProt Q86X55); assay: (§1) Inhibition of CARM1 (unknown origin) using 24 residues of biotin labelled histone4 substrate and tritiated 3H-S-adenosylmethionine by scintillation proximity assay
T2 sequence (Q86X55 whole entry): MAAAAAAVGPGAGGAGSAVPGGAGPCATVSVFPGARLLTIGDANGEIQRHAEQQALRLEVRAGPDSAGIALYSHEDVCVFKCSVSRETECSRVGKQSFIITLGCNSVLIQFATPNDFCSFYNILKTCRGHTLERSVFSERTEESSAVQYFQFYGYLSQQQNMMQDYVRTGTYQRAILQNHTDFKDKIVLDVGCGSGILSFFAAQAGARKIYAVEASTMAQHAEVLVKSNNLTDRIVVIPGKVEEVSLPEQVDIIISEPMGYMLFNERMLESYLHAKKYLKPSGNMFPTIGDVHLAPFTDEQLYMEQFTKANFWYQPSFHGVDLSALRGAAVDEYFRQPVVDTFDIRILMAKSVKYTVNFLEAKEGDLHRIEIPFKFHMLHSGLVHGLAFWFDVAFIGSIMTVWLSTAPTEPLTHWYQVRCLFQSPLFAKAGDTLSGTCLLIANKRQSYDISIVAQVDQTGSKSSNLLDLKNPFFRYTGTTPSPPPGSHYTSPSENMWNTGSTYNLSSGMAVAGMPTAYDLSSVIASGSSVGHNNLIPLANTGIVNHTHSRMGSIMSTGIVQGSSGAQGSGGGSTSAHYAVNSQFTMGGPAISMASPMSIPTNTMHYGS

[3] = biological target: Protein arginine N-methyltransferase 1 (Homo sapiens, UniProt Q99873); assay: Inhibition of human PRMT1 using 24 residues of biotin labelled histone4 substrate and tritiated 3H-S-adenosylmethionine by scintillation proximity assay
Protein arginine N-methyltransferase 1, sequence (Q99873 whole entry): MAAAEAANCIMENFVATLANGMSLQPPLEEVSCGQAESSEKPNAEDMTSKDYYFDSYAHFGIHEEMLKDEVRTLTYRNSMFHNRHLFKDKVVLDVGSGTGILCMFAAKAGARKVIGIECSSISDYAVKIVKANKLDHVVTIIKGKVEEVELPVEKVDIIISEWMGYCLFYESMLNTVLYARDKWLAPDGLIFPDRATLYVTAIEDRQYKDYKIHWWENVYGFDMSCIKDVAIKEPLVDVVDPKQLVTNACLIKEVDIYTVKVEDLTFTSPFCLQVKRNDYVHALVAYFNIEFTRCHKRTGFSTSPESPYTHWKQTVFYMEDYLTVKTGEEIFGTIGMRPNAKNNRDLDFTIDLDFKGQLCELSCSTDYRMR

[4] = biological target: Protein arginine N-methyltransferase 3 (Homo sapiens, UniProt O60678); assay: Inhibition of human PRMT3 using 24 residues of biotin labelled histone4 substrate and tritiated 3H-S-adenosylmethionine by scintillation proximity assay
Protein arginine N-methyltransferase 3, sequence (O60678 whole entry): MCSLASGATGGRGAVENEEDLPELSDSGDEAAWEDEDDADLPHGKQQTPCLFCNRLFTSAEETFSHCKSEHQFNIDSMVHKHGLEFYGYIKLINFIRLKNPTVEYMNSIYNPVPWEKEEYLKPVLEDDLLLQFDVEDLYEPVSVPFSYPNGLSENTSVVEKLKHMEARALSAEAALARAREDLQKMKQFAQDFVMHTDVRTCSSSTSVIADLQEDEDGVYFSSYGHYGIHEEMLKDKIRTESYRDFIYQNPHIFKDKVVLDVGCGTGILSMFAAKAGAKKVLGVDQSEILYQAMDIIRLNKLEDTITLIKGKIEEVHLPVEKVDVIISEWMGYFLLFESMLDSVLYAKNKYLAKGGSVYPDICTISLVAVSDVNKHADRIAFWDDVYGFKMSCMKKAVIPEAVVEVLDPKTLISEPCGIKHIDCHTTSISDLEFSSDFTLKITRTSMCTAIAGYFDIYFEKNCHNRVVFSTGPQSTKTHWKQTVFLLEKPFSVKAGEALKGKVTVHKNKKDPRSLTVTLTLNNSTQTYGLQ

[5] = biological target: T2, Histone-arginine methyltransferase CARM1; assay: Inhibition of human PRMT4 using 24 residues of biotin labelled histone4 substrate and tritiated 3H-S-adenosylmethionine by scintillation proximity assay
[6] = biological target: Protein arginine N-methyltransferase 5 (Homo sapiens, UniProt O14744); assay: Inhibition of human PRMT5 using 24 residues of biotin labelled histone4 substrate and tritiated 3H-S-adenosylmethionine by scintillation proximity assay
Protein arginine N-methyltransferase 5, sequence (O14744 whole entry): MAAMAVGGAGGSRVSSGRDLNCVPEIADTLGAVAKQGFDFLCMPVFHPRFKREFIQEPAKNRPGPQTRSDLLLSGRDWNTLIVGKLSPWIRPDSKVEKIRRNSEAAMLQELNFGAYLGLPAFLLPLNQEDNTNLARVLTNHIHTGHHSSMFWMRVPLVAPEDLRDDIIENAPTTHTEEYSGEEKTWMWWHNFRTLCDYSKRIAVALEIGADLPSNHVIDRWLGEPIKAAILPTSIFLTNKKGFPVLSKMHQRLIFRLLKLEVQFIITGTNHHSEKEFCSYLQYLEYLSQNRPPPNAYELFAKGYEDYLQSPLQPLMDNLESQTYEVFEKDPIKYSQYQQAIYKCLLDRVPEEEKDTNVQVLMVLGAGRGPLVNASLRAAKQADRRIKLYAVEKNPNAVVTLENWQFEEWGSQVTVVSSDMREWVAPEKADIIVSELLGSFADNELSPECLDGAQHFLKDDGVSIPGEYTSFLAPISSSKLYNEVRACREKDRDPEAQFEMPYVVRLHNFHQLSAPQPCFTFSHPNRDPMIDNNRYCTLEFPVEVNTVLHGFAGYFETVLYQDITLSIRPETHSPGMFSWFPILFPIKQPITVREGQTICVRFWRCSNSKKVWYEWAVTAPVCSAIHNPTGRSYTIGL

[7] = biological target: T3, Protein arginine N-methyltransferase 7 (Homo sapiens, UniProt Q9NVM4); assay: Inhibition of human PRMT7 using 24 residues of biotin labelled histone4 substrate and tritiated 3H-S-adenosylmethionine by scintillation proximity assay
T3 sequence (Q9NVM4 whole entry): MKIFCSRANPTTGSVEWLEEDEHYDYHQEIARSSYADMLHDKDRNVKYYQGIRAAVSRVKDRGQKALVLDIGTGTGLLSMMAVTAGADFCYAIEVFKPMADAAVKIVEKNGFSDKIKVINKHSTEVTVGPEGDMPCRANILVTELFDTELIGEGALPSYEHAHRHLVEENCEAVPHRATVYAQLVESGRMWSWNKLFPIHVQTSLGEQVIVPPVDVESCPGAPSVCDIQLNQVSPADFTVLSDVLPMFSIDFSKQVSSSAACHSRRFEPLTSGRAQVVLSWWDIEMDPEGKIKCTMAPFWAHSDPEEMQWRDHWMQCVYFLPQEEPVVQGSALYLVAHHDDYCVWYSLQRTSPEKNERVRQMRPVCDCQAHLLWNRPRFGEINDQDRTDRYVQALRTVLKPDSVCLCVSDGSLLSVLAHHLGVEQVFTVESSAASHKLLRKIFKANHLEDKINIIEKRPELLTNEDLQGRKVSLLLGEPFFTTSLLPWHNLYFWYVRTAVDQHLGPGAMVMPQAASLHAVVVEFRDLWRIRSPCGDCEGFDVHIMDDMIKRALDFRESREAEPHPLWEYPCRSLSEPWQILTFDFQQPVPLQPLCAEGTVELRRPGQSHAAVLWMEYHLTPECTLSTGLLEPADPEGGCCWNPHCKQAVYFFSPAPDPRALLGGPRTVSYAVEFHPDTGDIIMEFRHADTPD

[8] = biological target: Protein arginine N-methyltransferase 8 (Homo sapiens, UniProt Q9NR22); assay: Inhibition of human PRMT8 using 24 residues of biotin labelled histone4 substrate and tritiated 3H-S-adenosylmethionine by scintillation proximity assay
Protein arginine N-methyltransferase 8, sequence (Q9NR22 whole entry): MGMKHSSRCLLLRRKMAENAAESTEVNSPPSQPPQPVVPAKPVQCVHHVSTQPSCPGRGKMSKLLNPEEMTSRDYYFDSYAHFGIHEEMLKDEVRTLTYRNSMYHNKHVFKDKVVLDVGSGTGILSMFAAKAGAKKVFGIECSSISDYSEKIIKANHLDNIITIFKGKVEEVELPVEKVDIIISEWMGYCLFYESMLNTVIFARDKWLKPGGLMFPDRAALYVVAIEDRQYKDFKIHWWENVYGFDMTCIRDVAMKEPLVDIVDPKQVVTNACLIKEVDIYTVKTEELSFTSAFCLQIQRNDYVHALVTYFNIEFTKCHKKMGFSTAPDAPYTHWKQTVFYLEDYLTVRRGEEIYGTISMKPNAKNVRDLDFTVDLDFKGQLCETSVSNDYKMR

[9] = biological target: T2, Histone-arginine methyltransferase CARM1; assay: Inhibition of GST-tagged CARM1 (unknown origin) using tritiated S-adenosylmethionine as substrate at 6 nM by methylation- based filter assay
[10] = biological target: T4, Histone-arginine methyltransferase CARM1 (Homo sapiens) (UniProt Q86X55); assay: as §1
T4 sequence (whole entry): T2 sequence (Q86X55 whole entry)

[11] = biological target: Protein arginine N-methyltransferase 6 (Homo sapiens, UniProt Q96LA8, L267E); assay: Inhibition of PRMT6 L267E mutant (unknown origin) using 24 residues of biotin labelled histone4 substrate and tritiated 3H-S-adenosylmethionine by scintillation proximity assay
Protein arginine N-methyltransferase 6 (Homo sapiens, UniProt Q96LA8, L267E), sequence (Q96LA8 whole entry L267E): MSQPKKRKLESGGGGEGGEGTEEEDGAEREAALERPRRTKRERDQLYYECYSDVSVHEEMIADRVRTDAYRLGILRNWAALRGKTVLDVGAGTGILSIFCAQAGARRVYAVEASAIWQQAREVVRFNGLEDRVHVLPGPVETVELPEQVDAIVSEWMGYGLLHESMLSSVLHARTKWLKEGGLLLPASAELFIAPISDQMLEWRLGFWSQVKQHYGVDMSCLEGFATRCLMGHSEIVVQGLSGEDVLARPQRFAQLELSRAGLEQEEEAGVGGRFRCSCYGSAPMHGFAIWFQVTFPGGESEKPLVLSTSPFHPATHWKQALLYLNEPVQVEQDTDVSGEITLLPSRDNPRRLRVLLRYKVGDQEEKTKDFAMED

[12] = biological target: T1, Protein arginine N-methyltransferase 6; assay: Inhibition of FLAG-tagged human PRMT6 expressed in HEK293 cells assessed as reduction in H3R2 global methylation incubated for 20 hrs by Western blot method; type: cell-based
[13] = biological target: T1, Protein arginine N-methyltransferase 6; assay: Binding affinity to Inhibition of N-terminal hexa-His tagged human PRMT6 expressed in Sf9 cells by ITC method

T1 sequence (Q96LA8 whole entry): as the sequence (Q96LA8 whole entry L267E) above, with E267L counted along it

| SMILES | IC50 [1] [µM] | IC50 [2] [µM] | IC50 [4] [µM] | IC50 [5] [µM] | IC50 [6] | IC50 [7] | IC50 [8] [µM] | other results |
| --- | --- | --- | --- | --- | --- | --- | --- | --- |
| CNCc1cccc(-c2ccco2)c1 | 146 |  |  |  |  |  |  |  |
| CNCc1cccc(-c2cccnc2)c1 | 104 |  |  |  |  |  |  |  |
| Cc1nc(N)sc1-n1ccc(C(F)(F)F)n1 | 46 |  |  |  |  |  |  |  |
| CCNC(=O)[C@@H](C)N | > 200 | 105 | > 1000 | 105 | Not Active | Not Active | > 200 | IC50 [3]: > 1000 µM |
| C[C@@H](N)C(=O)NCc1cccc(-n2nc(C(F)(F)F)cc2-c2nnc(-c3cccc4[nH]ccc34)o2)c1 |  |  |  |  |  |  |  | IC50 [9]: 0.027 µM |
| CNCCN1CCC(c2ccc3[nH]c(-c4ccccc4OC)c(Cl)c3c2)CC1 |  |  |  |  |  |  |  | inhibition [10]: Active |
| CNCCN1CCC(C)CC1 |  | 0.2 | > 500 | 0.2 | Not Active | Not Active | 15 | IC50 [3]: 48 µM |
| Nc1ccc(S(=O)(=O)Nc2nccs2)cc1 [SULFATHIAZOLE] | 430 |  |  |  |  |  |  |  |
| CNCCN(C)C | 5 | 3 | 35 | 3 | Not Active | Not Active | 7 |  |
| NCCN1CCC(Cc2ccccc2)CC1 | 0.23 | 1 | 19 | 1 | Not Active | Not Active | 2.1 | IC50 [11]: 0.39 µM; IC50 [12]: 21 µM; Kd [13]: 0.97 µM |

Reference: ChEMBL document CHEMBL3779843, “Discovery of a Potent Class I Protein Arginine Methyltransferase Fragment Inhibitor” (J Med Chem, 2016)
